Experimental findings from ChEMBL document CHEMBL1143451, “The neuroprotective action of JNK3 inhibitors based on the 6,7-dihydro-5H-pyrrolo[1,2-a]imidazole scaffold” (Bioorg Med Chem Lett, 2005) are described below.

As usually defined, the IC50 is the concentration that inhibits the measured activity by half. The low end stands for higher potency, the high end for lower potency.

Assay [1] deals with T1, Mitogen-activated protein kinase 14 (Homo sapiens, UniProt Q16539). Description: Inhibitory activity against p38 at a concentration of 1.0 uM.
The target in assay [2] is T2, Mitogen-activated protein kinase 10 (Homo sapiens, UniProt P53779). In words: Inhibitory activity against c-Jun N-terminal kinase 3 at a concentration of 1.0 uM.
Assay [3] has as its target T2, Mitogen-activated protein kinase 10. In words: Inhibitory concentration against c-Jun N-terminal kinase 3 at a concentration of 1.0 uM.
For assay [4], the target named is T1, Mitogen-activated protein kinase 14. In words: Inhibitory concentration against p38 at a concentration of 1.0 uM.

T2 sequence (P53779 whole entry): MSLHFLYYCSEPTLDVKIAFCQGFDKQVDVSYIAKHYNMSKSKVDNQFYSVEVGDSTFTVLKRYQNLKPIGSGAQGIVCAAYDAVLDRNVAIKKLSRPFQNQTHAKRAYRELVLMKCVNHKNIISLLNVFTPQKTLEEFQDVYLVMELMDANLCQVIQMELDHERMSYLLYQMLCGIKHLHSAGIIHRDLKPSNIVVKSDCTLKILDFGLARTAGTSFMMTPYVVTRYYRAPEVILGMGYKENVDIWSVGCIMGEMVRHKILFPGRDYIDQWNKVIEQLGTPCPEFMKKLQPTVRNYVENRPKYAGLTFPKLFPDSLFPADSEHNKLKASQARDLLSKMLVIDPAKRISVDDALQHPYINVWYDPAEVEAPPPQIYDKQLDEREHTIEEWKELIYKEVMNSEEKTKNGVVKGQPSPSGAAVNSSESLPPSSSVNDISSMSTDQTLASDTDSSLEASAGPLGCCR
T1 sequence (Q16539 whole entry): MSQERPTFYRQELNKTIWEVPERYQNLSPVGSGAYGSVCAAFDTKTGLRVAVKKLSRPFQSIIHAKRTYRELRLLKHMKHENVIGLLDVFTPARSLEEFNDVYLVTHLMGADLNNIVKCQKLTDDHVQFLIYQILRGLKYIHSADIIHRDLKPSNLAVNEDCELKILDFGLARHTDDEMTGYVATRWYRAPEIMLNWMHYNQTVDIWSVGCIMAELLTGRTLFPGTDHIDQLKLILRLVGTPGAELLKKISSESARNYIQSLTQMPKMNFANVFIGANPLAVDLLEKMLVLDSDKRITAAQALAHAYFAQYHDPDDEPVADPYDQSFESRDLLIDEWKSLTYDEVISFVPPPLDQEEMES

Consider `CCCNc1nccc(-c2c(-c3ccc(F)cc3)nc3n2[C@@H](CO)CC3)n1`, for which the results for the IC50 in assay [1] and in assay [2] were 31 nM and 3 nM, respectively.
Turning to `O=C(NCCCn1cnc(-c2ccc(F)cc2)c1-c1ccncc1)c1ccccc1`, the IC50 in assay [3] was 130 nM.
With `CCCNc1nccc(-c2c(-c3ccc(F)cc3)nc3n2[C@H](CO)CC3)n1`, the IC50 in assay [1] came out at 28 nM; in assay [2], 2.5 nM.
With `[N-]=[N+]=Nc1cccc(-c2ncn(CCCNC(=O)c3ccc(I)cc3)c2-c2ccncc2)c1`, in assay [4], it took 46 nM to reach half-maximal inhibition (IC50).
Take `CCCNc1nccc(-c2c(-c3ccc(F)cc3)nc3n2[C@H](COCc2ccc(OC)cc2)CC3)n1`: the IC50 amounted to 54 nM in assay [1] and 10.9 nM in assay [2].
For `COc1ccc(COC[C@@H]2CCc3nc(-c4ccc(F)cc4)c(-c4ccnc(N)n4)n32)cc1`, the concentration for half-maximal inhibition (IC50) in assay [1] is 295 nM; in assay [2], 61.2 nM.
In the case of `COc1ccc(COC[C@H]2CCc3nc(-c4ccc(F)cc4)c(-c4ccnc(N)n4)n32)cc1`, the figures for the IC50 in assay [1] and in assay [2] were 116 nM and 270 nM, respectively.
Consider `CCCNc1nccc(-c2c(-c3ccc(F)cc3)nc3n2[C@@H](COCc2ccc(OC)cc2)CC3)n1`, for which the concentration for half-maximal inhibition (IC50) in assay [1] is 217 nM; in assay [2], 233 nM.
